Laboratory results published in EP4603105A1, “PHARMACEUTICAL COMPOSITION CONTAINING CYCLIC COMPOUND HAVING SELECTIVE KRAS INHIBITORY EFFECT AGAINST HRAS AND NRAS” (CHUGAI SEIYAKU KABUSHIKI KAISHA, priority 2022, dated 2024).
Where a SMILES comes first, the peptide text is derived from it. Bridges are numbered along the chain shown (N, C = ends). [ ]: non-standard residue; d: D form. The star is where a group is joined. hPhe(3,5-F2-4-CF3) = N[C@@H](CCc1cc(F)c(C(F)(F)F)c(F)c1)C(=O)O; hPhe(3-Cl-4-CF3) = N[C@@H](CCc1ccc(C(F)(F)F)c(Cl)c1)C(=O)O; NPrPhe(4-CF3) = CCCN[C@@H](Cc1ccc(C(F)(F)F)cc1)C(=O)O; NMePhe(4-CF3) = CN[C@@H](Cc1ccc(C(F)(F)F)cc1)C(=O)O; NMeGly(cPent) = CN[C@H](C(=O)O)C1CCCC1; Pro(4,4-F2) = O=C(O)[C@@H]1CC(F)(F)CN1; αMeI = CC[C@H](C)[C@](C)(N)C(=O)O; Hyp = O=C(O)[C@@H]1C[C@@H](O)CN1; NMeChg = CN[C@H](C(=O)O)C1CCCCC1; NMeD = CN[C@@H](CC(=O)O)C(=O)O; NMeL = CN[C@@H](CC(C)C)C(=O)O; NEtAla = CCN[C@@H](C)C(=O)O; Morpholide = C1CN(*)CCO1; NMeA = CN[C@@H](C)C(=O)O; Ac5c = NC1(C(=O)O)CCCC1; Aze = O=C(O)[C@@H]1CCN1; Ac4c = NC1(C(=O)O)CCC1; Sar = CNCC(=O)O

Tests used:
HRAS wild-type protein = HRAS wild-type protein (Homo sapiens, UniProt P01112); assay: Binding to HRAS by surface plasmon resonance (SPR), KD and KD ratio to KRAS
In short: (§1)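 GDP-loaded biotinylated Avi-tag RAS proteins (E. coli-expressed) captured on a Biotin CAPture chip at ~100–300 RU; single-cycle kinetics at 30°C, 100 µL/min, 75 s injections of rising compound concentrations. HBS pH 7.4 running buffer with 1 mM DTT, 10 mM MgCl2, 10 µM GDP, 4% DMSO. KD from 1:1 binding fit.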

[1] = test system: human lung cancer strain NCI-H441; type: cell-based
In short: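 Readout: […] after the ATP-based reagent. Compound: serial dilutions in dimethyl sulfoxide.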

[2] = target: GDP-bound NRAS wild-type protein (Homo sapiens, UniProt P01111); assay: Binding to NRAS by surface plasmon resonance (SPR), KD and KD ratio to KRAS
In short: as §1

[3] = ratio of KD for HRAS wild-type protein to KD for KRAS
[4] = ratio of KD for GDP-bound NRAS wild-type protein to KD for KRAS
[5] = ratio of the KD value with respect to HRAS wild-type protein to the KD value with respect to KRAS
[6] = ratio of the KD value with respect to GDP-bound NRAS wild-type protein to the KD value with respect to KRAS

Sequence of HRAS wild-type protein (P01112 whole entry): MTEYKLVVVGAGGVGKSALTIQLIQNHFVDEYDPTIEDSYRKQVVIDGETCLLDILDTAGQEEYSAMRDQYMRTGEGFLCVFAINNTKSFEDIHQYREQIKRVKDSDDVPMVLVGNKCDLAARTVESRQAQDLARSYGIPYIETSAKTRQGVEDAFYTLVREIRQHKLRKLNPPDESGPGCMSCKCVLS
Sequence of GDP-bound NRAS wild-type protein (P01111 whole entry): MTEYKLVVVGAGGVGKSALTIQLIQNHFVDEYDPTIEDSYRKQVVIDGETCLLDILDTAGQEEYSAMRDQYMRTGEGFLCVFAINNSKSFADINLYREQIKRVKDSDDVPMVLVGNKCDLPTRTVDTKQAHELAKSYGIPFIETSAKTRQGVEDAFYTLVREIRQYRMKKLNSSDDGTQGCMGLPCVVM

Row | Compound | HRAS /KRAS (HRAS wild-type protein; [3]) | IC50 [1] | NRAS /KRAS [2, 4] | HRAS /KRAS (HRAS wild-type protein; [5]) | NRAS /KRAS [2, 6]
1 | CC[C@H](C)[C@@H]1NC(=O)[C@H](CC(C)C)N(C)C(=O)C[C@@H](C(=O)N2CCOCC2)N(C)C(=O)[C@H](C2CCCC2)N(C)C(=O)C2(CCCC2)NC(=O)[C@@H]2CCCN2C(=O)[C@H](CCc2ccc(C(F)(F)F)c(Cl)c2)NC(=O)CN(C)C(=O)[C@H](Cc2ccc(C(F)(F)F)cc2)N(C)C(=O)CN(C)C(=O)CN(C)C1=O [PP0076] ([NMeL]I[Sar][Sar][NMePhe(4-CF3)][Sar][hPhe(3-Cl-4-CF3)]P[Ac5c][NMeGly(cPent)][NMeD]-Morpholide; lactam N-11) | C (A compound having a KD ratio of 0.1 or more and less than 3 is denoted as C) | 10.9 nM | C (A compound having a KD ratio of 0.1 or more and less than 3 is denoted as C) | – | –
2 | CCO[C@@H]1C[C@H]2C(=O)NC3(CCC3)C(=O)N(C)[C@@H](C3CCCC3)C(=O)N(C)[C@H](C(=O)N(C)C)CC(=O)N(C)[C@@H](CC)C(=O)N[C@@H]([C@@H](C)CC)C(=O)N3CC[C@H]3C(=O)N(C)[C@H]3C/C=C\CCN(C3=O)[C@@H](Cc3ccc(C(F)(F)F)cc3)C(=O)N(C)CC(=O)N[C@@H](CCc3cc(F)c(C(F)(F)F)c(F)c3)C(=O)N2C1 [PP0984] | A (a compound having 10 or more and less than 20 is denoted as A) | 64.6 nM | A (a compound having 10 or more and less than 20 is denoted as A) | – | –
3 | CCCN1C(=O)CN(C)C(=O)CN(C)C(=O)[C@H]([C@@H](C)CC)NC(=O)[C@H](CC(C)C)N(C)C(=O)C[C@@H](C(=O)N2CCOCC2)N(C)C(=O)[C@H](C2CCCCC2)N(C)C(=O)C2(CCC2)NC(=O)[C@@H]2CCCN2C(=O)[C@H](CCc2ccc(C(F)(F)F)c(Cl)c2)NC(=O)CN(C)C(=O)[C@@H]1Cc1ccc(C(F)(F)F)cc1 [PP1928] ([NMeL]I[Sar][Sar][NPrPhe(4-CF3)][Sar][hPhe(3-Cl-4-CF3)]P[Ac4c][NMeChg][NMeD]-Morpholide; lactam N-11) | – | 18.4 nM | – | B (a compound having 3 or more and less than 10 is denoted as B) | B (a compound having 3 or more and less than 10 is denoted as B)
4 | CCO[C@@H]1C[C@H]2C(=O)NC3(CCC3)C(=O)N(C)[C@@H](C3CCCC3)C(=O)N(C)[C@H](C(=O)N(C)C)CC(=O)N(C)[C@@H](CCC(=O)N(C)C)C(=O)N[C@@H]([C@@H](C)CC)C(=O)N(C)CC(=O)N(C)[C@H]3C/C=C\CCN(C3=O)[C@@H](Cc3ccc(C(F)(F)F)cc3)C(=O)N(C)CC(=O)N[C@@H](CCc3cc(F)c(C(F)(F)F)c(F)c3)C(=O)N2C1 [PP1122] | B (a compound having 3 or more and less than 10 is denoted as B) | 275 nM | A (a compound having 10 or more and less than 20 is denoted as A) | – | –
5 | CCO[C@@H]1C[C@H]2C(=O)NC3(CC(C)(C)C3)C(=O)N(C)[C@@H](C(CC)CC)C(=O)N(C)[C@H](C(=O)N(C)C)CC(=O)N(C)[C@@H](C(C)C)C(=O)N[C@@H]([C@@H](C)CC)C(=O)N(C)CC(=O)N(C)[C@H]3C/C=C\CCN(C3=O)[C@@H](Cc3ccc(C(F)(F)F)cc3)C(=O)N(C)CC(=O)N[C@@H](CCc3ccc(C(F)(F)F)c(Cl)c3)C(=O)N2C1 [PP2140] | – | 24.7 nM | – | A (a compound having 10 or more and less than 20 is denoted as A) | AA (a compound having 20 or more is denoted as AA)
6 | CCO[C@@H]1C[C@H]2C(=O)NC3(CCC3)C(=O)N(C)[C@@H](C3CCCC3)C(=O)N(C)[C@H](C(=O)N(C)C)CC(=O)N(C)[C@@H](CC3CCCC3)C(=O)N[C@@H]([C@@H](C)CC)C(=O)N(C)CC(=O)N(C)[C@H]3C/C=C\CCN(C3=O)[C@@H](Cc3ccc(C)cc3)C(=O)N(C)CC(=O)N[C@@H](CCc3ccc(C4CC4)c(C)c3)C(=O)N2C1 [PP2685] | A (a compound having 10 or more and less than 20 is denoted as A) | 133 nM | A (a compound having 10 or more and less than 20 is denoted as A) | – | –
7 | CCCN1C(=O)[C@@H]2CCN2C(=O)[C@H](C)N(CC)C(=O)[C@H]([C@@H](C)CC)NC(=O)[C@H](CC(C)C)N(C)C(=O)C[C@@H](C(=O)N2CCOCC2)N(C)C(=O)[C@H](C2CCCC2)N(C)C(=O)C2(CCCC2)NC(=O)[C@@H]2CCCN2C(=O)[C@H](CCc2ccc(C(F)(F)F)c(Cl)c2)NC(=O)CN(C)C(=O)[C@@H]1Cc1ccc(C(F)(F)F)cc1 [PP0152] ([NMeL]I[NEtAla][Aze][NPrPhe(4-CF3)][Sar][hPhe(3-Cl-4-CF3)]P[Ac5c][NMeGly(cPent)][NMeD]-Morpholide; lactam N-11) | B (a compound having 3 or more and less than 10 is denoted as B) | 37.9 nM | C (A compound having a KD ratio of 0.1 or more and less than 3 is denoted as C) | – | –
8 | CCO[C@@H]1C[C@H]2C(=O)NC3(CC(C)(C)C3)C(=O)N(C)[C@@H](C(CC)CC)C(=O)N(C)[C@H](C(=O)N(C)C)CC(=O)N(C)[C@@H](CC3CC3)C(=O)N[C@@H]([C@@H](C)CC)C(=O)N(C)CC(=O)N(C)[C@H]3C/C=C\CCN(C3=O)[C@@H](Cc3ccc(C(F)(F)F)cc3)C(=O)N(C)CC(=O)N[C@@H](CCc3ccc(C(F)(F)F)c(Cl)c3)C(=O)N2C1 [PP2124] | – | 18.7 nM | – | A (a compound having 10 or more and less than 20 is denoted as A) | AA (a compound having 20 or more is denoted as AA)
9 | CC[C@H](C)[C@@H]1NC(=O)[C@H](C2CC2)N(C)C(=O)C[C@@H](C(=O)N(C)CC)N(C)C(=O)[C@H](C2CCCC2)N(C)C(=O)C2(CC(C)(C)C2)NC(=O)[C@@H]2C[C@H](C)CN2C(=O)[C@H](CCc2ccc(C(F)(F)F)c(OC)c2)NC(=O)CN(C)C(=O)[C@H](Cc2ccc(C(F)(F)F)cc2)N2CC/C=C\C[C@@H](C2=O)N(C)C(=O)CN(C)C1=O [PP2007] | – | 14.9 nM | – | B (a compound having 3 or more and less than 10 is denoted as B) | AA (a compound having 20 or more is denoted as AA)
10 | CCCN1C(=O)[C@@H]2CCN2C(=O)[C@H](C)N(C)C(=O)[C@H]([C@@H](C)CC)NC(=O)[C@H](CC(C)C)N(C)C(=O)C[C@@H](C(=O)N(C)C)NC(=O)[C@H](C2CCCC2)N(C)C(=O)C2(CCCC2)NC(=O)[C@@H]2CC(F)(F)CN2C(=O)[C@H](CCc2ccc(C(F)(F)F)c(Cl)c2)NC(=O)CN(C)C(=O)[C@@H]1Cc1ccc(C(F)(F)F)cc1 [PP0381] ([NMeL]I[NMeA][Aze][NPrPhe(4-CF3)][Sar][hPhe(3-Cl-4-CF3)][Pro(4,4-F2)][Ac5c][NMeGly(cPent)]D-NMe2; lactam N-11) | B (a compound having 3 or more and less than 10 is denoted as B) | 11.1 nM | C (A compound having a KD ratio of 0.1 or more and less than 3 is denoted as C) | – | –
11 | CCCN1C(=O)CN(C)C(=O)CN(C)C(=O)[C@H]([C@@H](C)CC)NC(=O)[C@H](CC(C)C)N(C)C(=O)C[C@@H](C(=O)N2CCOCC2)N(C)C(=O)[C@H](C2CCCC2)N(C)C(=O)[C@](C)([C@@H](C)CC)NC(=O)[C@@H]2CCCN2C(=O)[C@H](CCc2cc(F)c(C(F)(F)F)c(F)c2)NC(=O)CN(C)C(=O)[C@@H]1Cc1ccc(C(F)(F)F)cc1 [PP0757] ([NMeL]I[Sar][Sar][NPrPhe(4-CF3)][Sar][hPhe(3,5-F2-4-CF3)]P[αMeI][NMeGly(cPent)][NMeD]-Morpholide; lactam N-11) | – | 480 nM | – | C (A compound having a KD ratio of 0.1 or more and less than 3 is denoted as C) | B (a compound having 3 or more and less than 10 is denoted as B)
12 | CC[C@H](C)[C@@H]1NC(=O)[C@H](CC)N(C)C(=O)C[C@@H](C(=O)N(C)C)N(C)C(=O)[C@H](C2CCCC2)N(C)C(=O)C2(CCC2)NC(=O)[C@@H]2CCCCN2C(=O)[C@H](CCc2cc(F)c(C(F)(F)F)c(F)c2)NC(=O)CN(C)C(=O)[C@H](Cc2ccc(C(F)(F)F)cc2)N2CCCC[C@@H](C2=O)N(C)C(=O)CN(C)C1=O [PP0658] | – | 10.3 nM | – | B (a compound having 3 or more and less than 10 is denoted as B) | C (A compound having a KD ratio of 0.1 or more and less than 3 is denoted as C)
13 | CCO[C@@H]1C[C@H]2C(=O)NC3(CCC3)C(=O)N(C)[C@@H](C3CCCC3)C(=O)N(C)[C@H](C(=O)N(C)C)CC(=O)N(C)[C@@H](Cc3cccc(F)c3)C(=O)N[C@@H]([C@@H](C)CC)C(=O)N(C)CC(=O)N(C)[C@H]3CCCCCN(C3=O)[C@@H](Cc3ccc(C(F)(F)F)cc3)C(=O)N(C)CC(=O)N[C@@H](CCc3cc(F)c(C(F)(F)F)c(F)c3)C(=O)N2C1 [PP0935] | B (a compound having 3 or more and less than 10 is denoted as B) | 26.9 nM | B (a compound having 3 or more and less than 10 is denoted as B) | – | –
14 | CCCN1C(=O)CN(C)C(=O)CN(C)C(=O)[C@H]([C@@H](C)CC)NC(=O)[C@H](CC(C)C)N(C)C(=O)C[C@@H](C(=O)N(C)C)NC(=O)[C@H](C2CCCC2)N(C)C(=O)C2(CCC2)NC(=O)[C@@H]2C[C@@H](OCC)CN2C(=O)[C@H](CCc2ccc(C(F)(F)F)c(Cl)c2)NC(=O)CN(C)C(=O)[C@@H]1Cc1ccc(C(F)(F)F)cc1 [PP0360] ([NMeL]I[Sar][Sar][NPrPhe(4-CF3)][Sar][hPhe(3-Cl-4-CF3)][Hyp](Et)[Ac4c][NMeGly(cPent)]D-NMe2; lactam N-11) | C (A compound having a KD ratio of 0.1 or more and less than 3 is denoted as C) | 18 nM | B (a compound having 3 or more and less than 10 is denoted as B) | – | –
